Measured values published in publication PMC10451018 (Protein Science : A Publication of the Protein Society, 2023).

What was measured:
[1] = biological target: T1, Azorhizobium caulinodans malic enzyme, AcME (Azorhizobium caulinodans, UniProt A8IFW0); assay: spectrophotometric NADH formation at […] nm; assay type: biochemical; details: L-malate as co-substrate
T1 sequence (A8IFW0 1-759): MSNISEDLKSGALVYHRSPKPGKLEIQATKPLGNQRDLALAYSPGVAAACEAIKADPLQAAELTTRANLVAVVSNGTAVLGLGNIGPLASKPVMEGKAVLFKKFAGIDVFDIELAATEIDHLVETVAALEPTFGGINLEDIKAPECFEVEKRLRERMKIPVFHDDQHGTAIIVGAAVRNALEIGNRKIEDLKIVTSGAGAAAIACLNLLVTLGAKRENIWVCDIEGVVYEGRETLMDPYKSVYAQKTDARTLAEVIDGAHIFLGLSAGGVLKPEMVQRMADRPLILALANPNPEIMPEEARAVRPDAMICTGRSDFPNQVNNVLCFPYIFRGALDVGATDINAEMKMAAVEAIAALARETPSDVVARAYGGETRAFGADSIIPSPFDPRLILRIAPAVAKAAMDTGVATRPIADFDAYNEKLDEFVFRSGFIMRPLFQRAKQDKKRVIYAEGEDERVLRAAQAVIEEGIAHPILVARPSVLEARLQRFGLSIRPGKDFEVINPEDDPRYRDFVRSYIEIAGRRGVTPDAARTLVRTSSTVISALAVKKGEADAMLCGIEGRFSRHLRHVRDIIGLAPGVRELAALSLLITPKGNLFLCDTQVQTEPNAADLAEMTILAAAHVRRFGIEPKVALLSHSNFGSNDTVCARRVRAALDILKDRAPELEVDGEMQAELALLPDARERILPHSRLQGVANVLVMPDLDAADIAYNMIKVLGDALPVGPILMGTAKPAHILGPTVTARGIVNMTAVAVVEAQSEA

[2] = biological target: T2, Aeropyrum pernix malate dehydrogenase, ApMDH (Aeropyrum pernix, UniProt Q9YEA1); assay: spectrophotometric NADH formation at […] nm; assay type: biochemical; details: L-malate as co-substrate
T2 sequence (Q9YEA1 1-308): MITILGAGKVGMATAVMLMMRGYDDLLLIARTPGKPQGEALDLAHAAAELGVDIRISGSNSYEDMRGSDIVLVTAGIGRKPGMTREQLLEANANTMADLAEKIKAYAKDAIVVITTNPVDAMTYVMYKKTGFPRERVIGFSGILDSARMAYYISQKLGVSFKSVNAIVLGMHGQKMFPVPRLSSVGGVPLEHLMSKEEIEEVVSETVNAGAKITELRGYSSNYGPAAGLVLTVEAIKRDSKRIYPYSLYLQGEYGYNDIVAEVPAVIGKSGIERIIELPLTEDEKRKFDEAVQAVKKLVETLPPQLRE

With NC(=O)c1ccc[n+]([C@@H]2O[C@H](COP(=O)(O)OP(=O)(O)OC[C@H]3O[C@@H](n4cnc5c(N)ncnc54)[C@H](O)[C@@H]3O)[C@@H](O)[C@H]2O)c1 [NAD^+] the “spectrophotometric NADH formation at 340 nm” value [1] was “oxidation of L‐malate was accompanied by reduction of NAD^+ to NADH” and the “spectrophotometric NADH formation at 340 nm” value [2] was “oxidation of L‐malate was accompanied by reduction of NAD^+ to NADH”.
